This note sets out measurements from ChEMBL document CHEMBL1128929, “A novel nitro-substituted seco-CI: Application as a reductively activated adept prodrug” (Bioorg Med Chem Lett, 1996).

Experiment [1] can be described thus: Compound was evaluated for its inhibitory activity against UV4 cell in the presence of drug along with NADH and enzyme(Escherichia coli B nitroreductase). It is filed as functional, cell-based, Cricetulus griseus.
Experiment [2] in a line: Compound was evaluated for its inhibitory activity against UV4 cell in the presence of drug and NADH. Type of experiment: functional, cell-based, Cricetulus griseus.
Experiment [3] in a line: Ratio of IC50 (drug alone)/IC50(drug+NADH+enzyme). It is filed as functional.
The nature of experiment [4]: Compound was evaluated for its inhibitory activity against UV4 cell in the presence of drug alone. Type of experiment: functional, cell-based, Cricetulus griseus.

With `COc1cc2cc(C(=O)N3CC(CCl)c4ccc([N+](=O)[O-])cc43)[nH]c2c(OC)c1OC` (configuration not stated), the IC50 (in general, the concentration that gives 50% inhibition) in experiment [1] is 6.4 nM; in experiment [2], 237 nM; in experiment [4], 2310 nM. Moreover, the Ratio in experiment [3] is 402.

As to `COc1cc2cc(C(=O)N3CC(CCl)c4ccc(NC(=O)OCc5ccc([N+](=O)[O-])cc5)cc43)[nH]c2c(OC)c1OC` (configuration not stated), the IC50 in experiment [1] is 598 nM; in experiment [2], 11300 nM; in experiment [4], 15000 nM. For the same compound, the Ratio in experiment [3] worked out at 0.9.

Consider `COc1cc2cc(C(=O)N3CC(CCl)c4ccc(N)cc43)[nH]c2c(OC)c1OC` (configuration not stated), for which the results for the concentration for half-maximal inhibition (IC50) in experiment [1], in experiment [2] and in experiment [4] were 27.8 nM, 26.6 nM and 23.6 nM, respectively. Moreover, the Ratio in experiment [3] amounted to 23.2.
